Read-outs that look alike come from different tables or passages of the source.
Experiments:
[1] = tested on: Parainfluenza 3 strain C 243; experiment: Parainfluenza cytoprotection assay in Vero cells; assay type: cell-based; settings: 168 h, Parainfluenza 3 strain C 243, 7 days, MTS
Protocol: (§1) The Parainfluenza Cytoprotection assay uses Vero cells and Parainfluenza 3 strain C 243. Briefly virus and cells are mixed in the presence of test compound and incubated for 7 days. […] Therefore, antiviral effect or cytoprotection is observed when compounds prevent virus replication. Each assay plate contains cell control wells (cells only), virus control wells (cells plus virus), compound toxicity control wells (cells plus compound only), compound colorimetric control wells (compound only), as well as experimental wells (compound plus cells plus virus). Cytoprotection and compound cytotoxicity are assessed by MTS (CellTiter®96 Reagent, Promega, Madison WI) dye reduction. […]
The virus used for this assay is Parainfluenza 3 strain C 243. […] The virus is resuspended and diluted into tissue culture medium such that the amount of virus added to each well is the amount determined to give between 85 to 95% cell killing at 6-7 days post-infection.
(§2) At assay termination (7 days post-infection), the assay plates are stained with the soluble tetrazolium-based dye MTS (3-(4,5-dimethylthiazol-2-yl)-5-(3-carboxymethoxyphenyl)-2-(4-sulfophenyl)-2H-tetrazolium; CellTiter®96 Reagent, Promega) to determine cell viability and quantify compound toxicity. […]

RSV strain A2 = experiment: Anti-RSV cytoprotection assay in Hep2 cells; assay type: cell-based; settings: human respiratory syncytial virus, HEp-2, 96 h
Protocol: Antiviral activity against RSV is determined using an in vitro cytoprotection assay in Hep2 cells. […] The method used is similar to methods previously described in published literature (Chapman et al., Antimicrob Agents Chemother. 2007, 51(9):3346-53.)
Hep2 cells are obtained from ATCC (Manassas, VI) and maintained in MEM media supplemented with 10% fetal bovine serum and penicillin/streptomycin. Cells are passaged twice a week and kept at subconfluent stage. Commercial stock of RSV strain A2 (Advanced Biotechnologies, Columbia, MD) is titered before compound testing to determine the appropriate dilution of the virus stock that generates desirable cytopathic effect in Hep2 cells.
For antiviral tests, Hep2 cells are seeded into 96-well plates 24 hours before the assay at a density of 3,000 cells/well. On a separate 96 well plate, compounds to be tested are serially diluted in cell culture media. Eight concentrations in 3-fold serial dilution increments are prepared for each tested compound and 100 uL/well of each dilution is transferred in duplicate onto plates with seeded Hep2 cells. Subsequently, appropriate dilution of virus stock previously determined by titration is prepared in cell culture media and 100 uL/well is added to test plates containing cells and serially diluted compounds. Each plate includes three wells of infected untreated cells and three wells of uninfected cells that served as 0% and 100% virus inhibition control, respectively. Following the infection with RSV, testing plates are incubated for 4 days in a tissue culture incubator. After the incubation, RSV-induced cytopathic effect is determined using a Cell TiterGlo reagent (Promega, Madison, WI) followed by a luminescence read-out. The percentage inhibition is calculated for each tested concentration relative to the 0% and 100% inhibition controls and the EC50 value for each compound is determined by non-linear regression as a concentration inhibiting the RSV-induced cytopathic effect by 50%. Ribavirin (purchased from Sigma, St. Louis, MO) is used as a positive control for antiviral activity.

[2] = Compound cytotoxicity in Vero cells (MTS); assay type: cell-based; settings: African green monkey (Cercopithecus aethiops), concentration resulting in 50% cell death, read-out: TC50
Protocol: as §1
as §2, with “toxicity. MTS is metabolized by the mitochondrial enzymes of metabolically active cells to yield a soluble formazan product, allowing the rapid quantitative analysis of cell viability and compound cytotoxicity.” for “toxicity.”

[3] = Cytotoxicity in uninfected Hep2 cells; assay type: cell-based; settings: human, CellTiter Glo
Protocol: Cytotoxicity of tested compounds is determined in uninfected Hep2 cells in parallel with the antiviral activity using the cell viability reagent in a similar fashion as described before for other cell types (Cihlar et al., Antimicrob Agents Chemother. 2008, 52(2):655-65.). The same protocol as for the determination of antiviral activity is used for the measurement of compound cytotoxicity except that the cells are not infected with RSV. Instead, fresh cell culture media (100 uL/well) without the virus is added to tested plates with cells and prediluted compounds. Cells are then incubated for 4 days followed by a cell viability test using CellTiter Glo reagent and a luminescence read-out. Untreated cell and cells treated with 50 ug/mL puromycin (Sigma, St. Louis, MO) are used as 100% and 0% cell viability control, respectively. The percent of cell viability is calculated for each tested compound concentration relative to the 0% and 100% controls and the CC50 value is determined by non-linear regression as a compound concentration reducing the cell viability by 50%.

[4] = biological target: T1, RSV ribonucleoprotein (RNP) complexes (Human respiratory syncytial virus A, UniProt P28887); experiment: RSV RNP transcription assay; assay type: biochemical, RSV A2; settings: reduction of total radiolabled transcripts by 50%, 90 minute incubation at 30° C.
T1 construct: The supernatant (S3) fraction, containing the enriched RSV RNP complexes, was collected; endogenous in cells; host or cells: HEp-2 cells infected with RSV A2; crude detergent-extracted S3 fraction
Protocol: HEp-2 cells were plated at a density of 7.1×10^4 cells/cm^2 in MEM+10% fetal bovine serum (FBS) and allowed to attach overnight at 37° C. (5% CO2). Following attachment, the cells were infected with RSV A2 (MOI=5) in 35 mL MEM+2% FBS. At 20 hours post-infection, the media was replaced with MEM+2% FBS supplemented with 2 μg/mL actinomycin D and returned to 37° C. for one hour. The cells were then washed once with PBS and treated with 35 mL of PBS+250 μg/mL lyso-lecithin for one minute, after which all liquid was aspirated. The cells were harvested by scrapping them into 1.2 mL of buffer A [50 mM TRIS acetate (pH 8.0), 100 mM potassium acetate, 1 mM DTT and 2 μg/mL actinomycin D] and lysed by repeated passage through an 18 gauge needle (10 times). The cell lysate was placed in ice for 10 minutes and then centrifuged at 2400 g for 10 minutes at 4° C. The supernatant (S1) was removed and the pellet (P1) was disrupted in 600 uL of Buffer B [10 mM TRIS acetate (pH 8.0), 10 mM potassium acetate and 1.5 mM MgCl2] supplemented with 1% Triton X-100 by repeated passage through an 18 gauge needle (10 times). The resuspended pellet was placed in ice for 10 minutes and then centrifuged at 2400 g for 10 minutes at 4° C. The supernatant (S2) was removed and the pellet (P2) was disrupted in 600 uL of Buffer B supplemented with 0.5% deoxycholate and 0.1% Tween 40. The resuspended pellet was placed in ice for 10 minutes and then centrifuged at 2400 g for 10 minutes at 4° C. The supernatant (S3) fraction, containing the enriched RSV RNP complexes, was collected and the protein concentration determined by UV absorbance at 280 nm. Aliquoted RSV RNP S3 fractions were stored at −80° C.
Transcription reactions contained 25 μg of crude RSV RNP complexes in 30 μL of reaction buffer [50 mM TRIS-acetate (pH 8.0), 120 mM potassium acetate, 5% glycerol, 4.5 mM MgCl2, 3 mM DTT, 2 mM ethyleneglycol-bis(2-aminoethylether)-tetraacetic acid (EGTA), 50 μg/mL BSA, 2.5 U RNasin (Promega), ATP, GTP, UTP, CTP and 1.5 uCi [α-^32P] NTP (3000 Ci/mmol)]. The radiolabled nucleotide used in the transcription assay was selected to match the nucleotide analog being evaluated for inhibition of RSV RNP transcription. […] The three remaining nucleotides were added at a final concentration of 100 μM.
To determine whether nucleotide analogs inhibited RSV RNP transcription, compounds were added using a 6 step serial dilution in 5-fold increments. Following a 90 minute incubation at 30° C., the RNP reactions were stopped with 350 μL of Qiagen RLT lysis buffer and the RNA was purified using a Qiagen RNeasy 96 kit. Purified RNA was denatured in RNA sample loading buffer (Sigma) at 65° C. for 10 minutes and run on a 1.2% agarose/MOPS gel containing 2M formaldehyde. […]

[5] = RSV-induced cytopathic effect, Hep2 cells, RSV strain A2, 4 days, Cell TiterGlo, read-out: EC50

T1 sequence (P28887 whole entry, looked up, one chain of several): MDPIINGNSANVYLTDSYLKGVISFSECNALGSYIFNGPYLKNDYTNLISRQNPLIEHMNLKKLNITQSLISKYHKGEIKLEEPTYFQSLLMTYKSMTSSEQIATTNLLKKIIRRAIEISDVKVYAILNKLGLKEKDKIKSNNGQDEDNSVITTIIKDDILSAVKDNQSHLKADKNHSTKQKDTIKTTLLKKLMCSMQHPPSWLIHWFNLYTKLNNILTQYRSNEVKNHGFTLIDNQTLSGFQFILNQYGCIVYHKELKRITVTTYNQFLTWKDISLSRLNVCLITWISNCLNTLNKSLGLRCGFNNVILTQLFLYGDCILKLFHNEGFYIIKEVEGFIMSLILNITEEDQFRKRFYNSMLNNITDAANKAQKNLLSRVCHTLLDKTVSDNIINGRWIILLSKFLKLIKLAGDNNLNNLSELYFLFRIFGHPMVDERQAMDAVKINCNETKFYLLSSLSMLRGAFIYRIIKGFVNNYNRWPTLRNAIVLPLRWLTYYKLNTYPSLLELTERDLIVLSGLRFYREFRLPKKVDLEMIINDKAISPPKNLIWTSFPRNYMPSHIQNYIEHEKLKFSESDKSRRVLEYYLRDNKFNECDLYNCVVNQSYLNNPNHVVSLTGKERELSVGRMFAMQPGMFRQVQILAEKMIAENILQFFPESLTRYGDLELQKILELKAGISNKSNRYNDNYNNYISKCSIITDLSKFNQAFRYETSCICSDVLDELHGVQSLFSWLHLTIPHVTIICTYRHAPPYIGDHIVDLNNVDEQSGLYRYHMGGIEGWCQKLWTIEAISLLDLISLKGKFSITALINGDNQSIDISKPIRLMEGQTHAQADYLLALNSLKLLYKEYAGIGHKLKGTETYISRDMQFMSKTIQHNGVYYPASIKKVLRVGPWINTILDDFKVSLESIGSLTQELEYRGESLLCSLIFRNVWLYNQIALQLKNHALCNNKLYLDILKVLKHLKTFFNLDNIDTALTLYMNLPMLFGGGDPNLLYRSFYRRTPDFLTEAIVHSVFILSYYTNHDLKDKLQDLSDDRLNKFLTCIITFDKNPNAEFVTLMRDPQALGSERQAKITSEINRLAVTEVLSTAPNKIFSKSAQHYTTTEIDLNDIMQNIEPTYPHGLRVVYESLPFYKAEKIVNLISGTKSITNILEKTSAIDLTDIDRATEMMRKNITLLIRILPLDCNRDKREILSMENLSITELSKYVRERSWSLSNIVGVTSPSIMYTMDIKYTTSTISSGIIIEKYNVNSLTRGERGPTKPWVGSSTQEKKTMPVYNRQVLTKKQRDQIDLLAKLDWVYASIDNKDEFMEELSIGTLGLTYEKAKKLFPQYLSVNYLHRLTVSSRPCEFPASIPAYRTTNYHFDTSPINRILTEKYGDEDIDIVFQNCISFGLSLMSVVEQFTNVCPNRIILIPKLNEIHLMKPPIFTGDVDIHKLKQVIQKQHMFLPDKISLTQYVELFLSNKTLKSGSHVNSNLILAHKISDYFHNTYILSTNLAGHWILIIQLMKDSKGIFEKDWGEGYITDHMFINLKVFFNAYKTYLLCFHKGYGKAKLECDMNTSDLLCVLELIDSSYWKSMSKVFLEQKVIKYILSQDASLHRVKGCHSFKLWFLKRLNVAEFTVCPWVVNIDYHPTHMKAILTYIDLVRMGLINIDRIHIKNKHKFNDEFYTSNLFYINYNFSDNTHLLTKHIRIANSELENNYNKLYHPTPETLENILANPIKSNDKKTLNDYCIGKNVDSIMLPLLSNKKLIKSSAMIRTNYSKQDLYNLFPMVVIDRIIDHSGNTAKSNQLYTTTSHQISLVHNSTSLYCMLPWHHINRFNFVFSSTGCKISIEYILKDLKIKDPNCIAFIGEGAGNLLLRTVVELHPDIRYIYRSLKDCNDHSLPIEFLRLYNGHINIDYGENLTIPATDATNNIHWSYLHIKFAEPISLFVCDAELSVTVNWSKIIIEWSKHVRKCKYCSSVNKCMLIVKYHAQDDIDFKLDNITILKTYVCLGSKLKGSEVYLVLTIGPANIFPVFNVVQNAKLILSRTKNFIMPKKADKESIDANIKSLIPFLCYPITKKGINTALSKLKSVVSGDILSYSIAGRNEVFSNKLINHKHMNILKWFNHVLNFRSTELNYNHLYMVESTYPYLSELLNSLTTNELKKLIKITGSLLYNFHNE

Row | EC50 (RSV strain A2; [5]) [µM] | SMILES | CC50 at 4 days [3] [µM] | IC50 [4] [µM] | other results
1 | 0.48 | N#C[C@@]1(c2ccc3c(N)ncnn23)O[C@H](CO)[C@@H](O)[C@H]1O [Compound 1, (2R, 3R, 4S, 5R)-2-(4-aminopyrrolo[1,2-f][1,2,4]triazin-7-yl)-3,4-dihydroxy (hydroxymethyl)tetrahydrofuran-2-carbonitrile] | > 100 | – | IC50 [1]: 1.71 µM; CC50 at 7 days [2]: > 30 µM
2 | – | C[C@@]1(c2ccc3c(N)ncnn23)O[C@H](COP(=O)(O)OP(=O)(O)OP(=O)(O)O)[C@@H](O)[C@H]1F [Compound 6, ((2R, 3R, 4R, 5S)-5-(4-aminopyrrolo[1,2-f][1,2,4]triazin-7-yl)-4-fluoro-3-hydroxy-5-methyltetrahydrofuran-2-yl)methyl Tetrahydrogen Triphosphate] | – | 3.6 | –
3 | – | CCOC(=O)[C@H](C)NP(=O)(OC[C@H]1O[C@@](C#N)(c2ccc3c(N)ncnn23)[C@H](O)[C@@H]1O)Oc1ccccc1 (stereo partly drawn) [Compound 10, (2S)-ethyl 2-((((2R,3S,4R,5R)-5-(4-aminopyrrolo[1,2-f][1,2,4]triazin-7-yl)cyano-3,4-dihydroxytetrahydrofuranyl)methoxy)(phenoxy)phosphorylamino)propanoate] | 47 | – | EC50 (RSV strain A2): 0.18 µM
4 | 6.5 | CCOC(=O)[C@H](C)NP(=O)(N[C@@H](C)C(=O)OCC)OC[C@H]1O[C@@](C#N)(c2ccc3c(N)ncnn23)[C@H](O)[C@@H]1O [Compound 12, (2S,2'S)-diethyl 2,2′-((((2R,3S,4R,5R)-5-(4-aminopyrrolo[1,2-f][1,2,4]triazinyl)-5-cyano-3,4-dihydroxytetrahydrofuranyl)methoxy)phosphoryl)bis(azanediyl)dipropanoate] | > 100 | – | –
5 | 34 | C#C[C@@]1(c2ccc3c(N)ncnn23)O[C@H](CO)[C@@H](O)[C@H]1O [Compound 13, (2S,3R,4S,5R)-2-(4-aminopyrrolo[1,2-f][1,2,4]triazin-7-yl)-2-ethynyl (hydroxymethyl)tetrahydrofuran-3,4-diol] | > 100 | – | –
6 | 2.7 | C[C@@]1(c2ccc3c(N)ncnn23)O[C@H](CO)[C@@H](O)[C@H]1O [Compound 14] | 92 | – | IC50 [1]: 5.23 µM; CC50 at 7 days [2]: > 30 µM
7 | 0.15 | CC(C)(C)C(=O)SCCOP(=O)(OCCSC(=O)C(C)(C)C)OC[C@H]1O[C@@](C#N)(c2ccc3c(N)ncnn23)[C@H](O)[C@@H]1O [Compound 15, S,S′-2,2′-((((2R,3S,4R,5R)-5-(4-aminopyrrolo[1,2-f][1,2,4]triazin-7-yl)-5-cyano-3,4-dihydroxytetrahydrofuran-2-yl)methoxy)phosphoryl)bis(oxy)bis(ethane-2,1-diyl) bis(2,2-dimethylpropanethioate)] | > 100 | – | –
8 | – | C#C[C@@]1(c2ccc3c(N)ncnn23)O[C@H](COP(=O)(OCCSC(=O)C(C)(C)C)OCCSC(=O)C(C)(C)C)[C@@H](O)[C@H]1O [Compound 16, S,S′-2,2′-((((2R, 3S, 4R, 5S)-5-(4-aminopyrrolo[1,2-f][1,2,4]triazin-7-yl)-5-ethynyl-3,4-dihydroxytetrahydrofuran-2-yl)methoxy)phosphoryl)bis(oxy)bis(ethane-2,1-diyl) bis(2,2-dimethylpropanethioate)] | > 100 | – | EC50 (RSV strain A2): 3.3 µM
9 | – | C#C[C@@]1(c2ccc3c(N)ncnn23)O[C@H](COP(=O)(O)OP(=O)(O)OP(=O)(O)O)[C@@H](O)[C@H]1O [Compound 18, ((2R, 3S, 4R, 5S)-5-(4-aminopyrrolo[1,2-f][1,2,4]triazin-7-yl)-5-ethynyl-3,4-dihydroxytetrahydrofuran-2-yl)methyl tetrahydrogen triphosphate] | – | 1.6 | –
10 | – | C[C@@]1(c2ccc3c(N)ncnn23)O[C@H](COP(=O)(O)OP(=O)(O)OP(=O)(O)O)[C@@H](O)[C@H]1O [Compound 19, ((2R, 3S, 4R, 5S)-5-(4-aminopyrrolo[1,2-f][1,2,4]triazin-7-yl)-3,4-dihydroxymethyltetrahydrofuran-2-yl)methyl Tetrahydrogen Triphosphate] | – | 1.5 | –
11 | – | N#C[C@@]1(c2ccc3c(N)ncnn23)O[C@H](COP(=O)(O)OP(=O)(O)OP(=O)(O)O)[C@@H](O)[C@H]1F [Compound 20, ((2R,3R,4R,5R)-5-(4-aminopyrrolo[1,2-f][1,2,4]triazin-7-yl)-5-cyano-4-fluoro-3-hydroxytetrahydrofuran-2-yl)methyl Tetrahydrogen Triphosphate] | – | 0.8 | –
